Data taken from patent US20220204577A1, “Synthetic Peptides With Affinity for the Interleukin-10 Receptor, Pharmaceutical Composition and Use Thereof as Immunomodulators for Treating Autoimmune, Inflammatory or Allergic Diseases” (Universidade Federal de Uberlândia, priority 2019, published 2022).
Positions of bridges follow the written chain, without caps; N, C: chain ends. No end group written: not given here.

Tests used:
[1] = Dynamic Light Scattering (DLS), aggregation behavior in solution; type: physicochemical
Experimental: The aggregation behavior of peptides Pep 1, Pep 2, Pep 3, and Pep 4 in solution was determined by Dynamic Light Scattering (DLS), as shown in FIG. 1E. All synthetic peptides were approximately 100% monomeric in solution. The measured hydrodynamic radius of the peptides was similar for Pep 1 (0.82 nm), Pep 2 ([…]), Pep 3 (0.79 nm), and Pep 4 (0.86 nm).

NFκB [2] = test: NFkB expression in Jurkart-Dual reporter cells, peptide pre-treatment then TNF-α; type: cell-based; settings: peptide 1 hour, then TNF-α 200 ng/ml; all concentrations tested; 12, 24 and 48 hours
Experimental: The assay was then performed using TNF-α as the activating molecule not only in the control, but after a pre-treatment with the synthesized peptides Pep 1, Pep 2, Pep 3, and Pep 4 at various concentrations. […] In the assays shown in FIGS. 3 A, B, and C, NFkB expression analysis was performed in Jurkart-Dual reporter cells. Cells were treated with peptides for 1 hour and TNF-α (200 ng/ml) was added. Luciferase was measured after 12 hours of treatment (FIG. 3A), 24 hours of treatment (FIG. 3B), and 48 hours of treatment (FIG. 3C).

NFκB [3] = test: NFkB expression in Jurkart-Dual reporter cells, TNF-α pre-treatment then peptides; type: cell-based; settings: for NFκB signaling: TNF-α then peptide
Experimental: Then another assay was performed in which the cells were pretreated with TNF-α and the peptides were added later. […] In the assays shown in FIGS. 4 A, B, and C the analysis of NFkB expression was performed in Jurkart-Dual reporter cells. Cells were treated with TNF-α (200 ng/ml) for 1 hour and the peptides were added. Luciferase was measured after 12 hours of treatment (FIG. 4A), 24 hours of treatment (FIG. 4B), and 48 hours of treatment (FIG. 4C). TNF-α (200 ng/mL) was used as a positive control and rIL-10 (Recombinant Interleukin-10) (0.4 ng/mL) as a negative control. * P<0.05; ** P<0.005; *** P<0.0005.

TLR4 signaling pathway [4] = test: TLR4 signaling pathway (SEAP) in HEK cells, peptide pre-treatment then LPS; type: cell-based; settings: peptide then LPS; 0.005 μM; 12 hours
Experimental: (§1) HEK cells were used to investigate the ability of the peptides to reduce activation of the TLR4 signaling pathway after 12 hours of treatment.
(§2) In the assay shown in FIG. 7A, the cells were treated with peptides for 1 hour, then LPS (100 ng/ml) was added. SEAP production was measured after 12 hours of treatment. In the assay shown in FIG. 7B, the cells were treated with LPS (100 ng/ml) for 1 hour, then the peptides were added. SEAP production was measured after 12 hours of treatment. LPS (100 ng/mL) was used as positive control and IL-10 (0.4 ng/mL) as negative control. * P<0.05; ** P<0.005; *** P<0.0005.

TLR4 signaling pathway [5] = test: TLR4 signaling pathway (SEAP) in HEK cells, LPS pre-treatment then peptides; type: cell-based; settings: LPS then peptide, 12 hours
Experimental: as §1, §2

[6] = tested on: Dendritic cells from mice bone marrow; test: Co-stimulatory molecules on bone marrow dendritic cells; type: cell-based; settings: CD11c+ dendritic cells, 24 hours
Experimental: Dendritic cells from mice bone marrow were isolated to analyze the effect of synthesized peptides Pep 1, Pep 2, Pep 3, and Pep 4 at two concentrations, 1 μM, and 10 μM, on reducing cell activation. […] In the assays, CD11c+CD86 cells (FIG. 8A) and CD11c+CD40+ cells (FIG. 8B) were used after 24 hours of treatment. LPS (100 ng/mL) was used as a positive control. * P<0.05; ** P<0.005.

[7] = tested on: T cells from allergic patients; test: Proliferation of T cells from allergic patients; type: cell-based; settings: 10 μM; 24 hours; Bet v 1 positive control
Experimental: To confirm the ability of the synthesized peptides to decrease dendritic cell activation, a composition containing Pep 1 at a concentration of 10 μM was chosen and the proliferation of T cells from allergic patients was measured after 24 hours of treatment. […] Cells were treated with Bet v 1 as a positive control, and an irrelevant peptide (IR) was used as a negative control.

[8] = tested on: mouse basophilic leukemia cells transfected with the human FcεRI IgE receptor (hRBL); test: IgE-mediated release of β-hexosaminidase (basophil degranulation) in hRBL cells; type: cell-based; settings: 1 μM; versus cells treated with Bet v1 alone; serum from seven birch pollen-allergic donors
Experimental: The effect of Pep 1 on IgE-mediated release was studied using mouse basophilic leukemia cells transfected with the human FcεRI IgE receptor (hRBL). The hRBL cells were sensitized with serum from seven patients allergic to birch pollen. The cells were stimulated with the antigen and its interaction with immobilized IgEs resulting in the release of β-hexosaminidase.
When cells were treated with a composition containing Pep 1 to 1 μM (FIG. 10A) or rIL10 (FIG. 10B), the amount of Bet v 1 required to induce the same amount of degranulation was higher than for cells treated with Bet v1 alone (P<0.05). Amount of rBet v 1 (ng/mL) required to induce half the release of β-hexosaminidase using serum from seven birch pollen-allergic donors after treatment with Pep 1 (A) (P<0.05) and rIL10 (B) * P<0.05.

cell line J774 = test: Cytokines production after treatment of cell line J774; type: cell-based; parameters: levels of MCP-1: dose or concentration left out as unconfirmed
Experimental: After 24 hours of treatment, the produced amounts of IL-6, MCP-1, and TNF-α were measured. […] In contrast, when cells were treated with a composition of Pep 1 followed by incubation with LPS (1 mg/ml) for 24 hours to induce an inflammatory response, the peptide was able to decrease the production of IL-6, MCP-1, and TNF-α.
Each decrease was significant compared to cells treated with LPS alone (positive control). * P<0.05; ** P<0.005; *** P<0.0005

Pep 1: synthetic peptide with affinity to the Interleukin-10 receptor, SEQ ID No 01, with disulfide bridges (HACSAVIKSSCGGGS; disulfide 3-11 (inferred))
hydrodynamic radius [1]: 0.82 nm
NFκB activation (NFκB [2]): able to decrease NFκB activation
NFκB signaling (NFκB [3]; 0.0001 μM, 24 hours): less activation of the analyzed signaling pathway
NFκB signaling (NFκB [3]; 0.001 μM, 12 hours): decreased the activation of the analyzed pathway
NFκB signaling (NFκB [3]; 0.001 μM, 24 hours): less activation of the analyzed signaling pathway
NFκB signaling (NFκB [3]; 0.001 μM, 48 hours): reducing NFκB signaling
NFκB signaling (NFκB [3]; 0.005 μM, 24 hours): less activation of the analyzed signaling pathway
NFκB signaling (NFκB [3]; 0.05 μM, 12 hours): decreased the activation of the analyzed pathway
NFκB signaling (NFκB [3]; 0.1 μM, 12 hours): decreased the activation of the analyzed pathway
NFκB signaling (NFκB [3]; 0.1 μM, 24 hours): less activation of the analyzed signaling pathway
NFκB signaling (NFκB [3]; 0.5 μM, 12 hours): decreased the activation of the analyzed pathway
NFκB signaling (NFκB [3]; 1 μM, 12 hours): decreased the activation of the analyzed pathway
NFκB signaling (NFκB [3]; 1 μM, 24 hours): less activation of the analyzed signaling pathway
NFκB signaling (NFκB [3]; 5 μM, 12 hours): decreased the activation of the analyzed pathway
NFκB signaling (NFκB [3]; 10 μM, 12 hours): decreased the activation of the analyzed pathway
NFκB signaling (NFκB [3]; 10 μM, 24 hours): less activation of the analyzed signaling pathway
NFκB signaling (NFκB [3]; 100 μM, 24 hours): less activation of the analyzed signaling pathway
NFκB activation (NFκB [3]; cells pretreated with TNF-α, all concentrations tested, 12 and 24 hours): decreased NFκB activation
TLR4 pathway activation (TLR4 signaling pathway [4]): significantly reduced pathway activation
activation of the TLR4 pathway (TLR4 signaling pathway [5]; 0.001 μM): activation of the TLR4 pathway was more significantly reduced
activation of the TLR4 pathway (TLR4 signaling pathway [5]; 0.005 μM): activation of the TLR4 pathway was more significantly reduced
activation of the TLR4 pathway (TLR4 signaling pathway [5]; 0.01 μM): activation of the TLR4 pathway was more significantly reduced
activation of the TLR4 pathway (TLR4 signaling pathway [5]; 0.05 μM): activation of the TLR4 pathway was more significantly reduced
activation of the TLR4 pathway (TLR4 signaling pathway [5]; 0.1 μM): activation of the TLR4 pathway was more significantly reduced
expression of CD86+ ([6]; 1 μM): decreased the expression of CD86+
expression of CD86+ ([6]; 10 μM): decreased the expression of CD86+
T cell proliferation [7]: decreased T cell proliferation
amount of Bet v 1 required to induce the same amount of degranulation [8]: higher
IL-10, IFN-γ, or IL12p70 production (cell line J774; 24 hours of treatment (data not shown)): No interference
levels of IL-6 (cell line J774; peptide then LPS 24 hours, 1 μM and 10 μM printed beside IL-6, versus LPS alone): significantly reduced
levels of TNF-α (cell line J774; peptide then LPS 24 hours, 1 μM, 10 μM and 100 μM, versus LPS alone): significantly reduced
levels of MCP-1 (cell line J774; peptide then LPS 24 hours, versus LPS alone): significantly reduced
cytokine response to peptide alone (cell line J774; without LPS stimulation (data not shown)): unable to elicit any response
